Measured values: ChEMBL document CHEMBL1201862, “PubChem BioAssay data set” (2004)
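Cells were grown in 96-well plates and exposed to each compound for 48 hours at five concentrations; endpoints were interpolated linearly between bracketing concentrations, or set to the highest concentration if not reached. GI50 = concentration required for 50% inhibition of growth.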 Calls of active or inactive are those of the source. Rule as the data show it: active = GI50 up to about 1.1 µM and inactive = higher.

Assays:
Test in all cases: NCI anticancer screen, dose series, 48 h
[1] = test system: XF498
[2] = test system: M19-MEL
[3] = test system: KM-20L2
[4] = test system: DMS-114
[5] = test system: SNB-78
[6] = test system: DLD-1
[7] = test system: HOP-18
[8] = test system: LXFL 529
[9] = test system: RXF 631

CCOC(=O)C1(Br)S(=O)(=O)OCCOS1(=O)=O
GI50 [1]: > 100 µM (inactive) | GI50 [2]: > 100 µM (inactive) | GI50 [3]: > 100 µM (inactive) | GI50 [4]: > 100 µM (inactive) | GI50 [5]: > 100 µM (inactive) | GI50 [6]: > 100 µM (inactive)

CC(=O)Nc1ccc(SC#N)c2c(NC(C)=O)cccc12
GI50 [2]: > 100 µM (inactive) | GI50 [3]: > 100 µM (inactive) | GI50 [4]: 43.1 µM (inactive) | GI50 [7]: 45.2 µM (inactive) | GI50 [8]: 28 µM (inactive) | GI50 [5]: 99.3 µM (inactive) | GI50 [6]: 71.6 µM (inactive) | GI50 [9]: > 82.8 µM (inactive)

CCOC(=O)C1=C(O)C(=O)c2ccccc2C1=O
GI50 [1]: > 100 µM (inactive) | GI50 [2]: 22.2 µM (inactive) | GI50 [4]: > 100 µM (inactive) | GI50 [7]: > 100 µM (inactive) | GI50 [5]: > 100 µM (inactive) | GI50 [6]: > 100 µM (inactive)

CC(=O)OCCOCNC(=S)N/N=C/c1ccc([N+](=O)[O-])s1
GI50 [1]: > 100 µM (inactive) | GI50 [2]: 18.2 µM (inactive) | GI50 [3]: 32.4 µM (inactive) | GI50 [4]: 7.85 µM (inactive) | GI50 [7]: > 100 µM (inactive) | GI50 [8]: 73.3 µM (inactive) | GI50 [5]: > 100 µM (inactive) | GI50 [6]: 31.1 µM (inactive)

CC1CCCC2(O1)OC1CC(=O)OC1C1=C2C(=O)c2ccccc2C1=O (stereo not drawn)
GI50 [1]: 2.72 µM (inactive) | GI50 [2]: 2.72 µM (inactive) | GI50 [3]: 3.98 µM (inactive) | GI50 [4]: 1.75 µM (inactive) | GI50 [8]: 1.4 µM (inactive) | GI50 [5]: 2.05 µM (inactive)

O=C(O)C12CC3CC(CC(F)(C3)C1)C2
GI50 [1]: > 100 µM (inactive) | GI50 [2]: > 100 µM (inactive) | GI50 [3]: > 100 µM (inactive) | GI50 [4]: > 100 µM (inactive) | GI50 [8]: > 100 µM (inactive) | GI50 [5]: 32.2 µM (inactive) | GI50 [6]: > 100 µM (inactive)

CCOC(=N)CC(=O)Nc1cccc(C)c1C
GI50 [1]: > 100 µM (inactive) | GI50 [2]: > 100 µM (inactive) | GI50 [3]: > 100 µM (inactive) | GI50 [8]: > 100 µM (inactive) | GI50 [5]: 40.3 µM (inactive) | GI50 [6]: > 100 µM (inactive) | GI50 [9]: > 100 µM (inactive)

COc1ccccc1NC(=O)C1=C(C)NC(C)=C(C(=O)Nc2ccccc2OC)C1c1ccccc1Cl
GI50 [1]: 37.7 µM (inactive) | GI50 [2]: > 100 µM (inactive) | GI50 [3]: 56.5 µM (inactive) | GI50 [4]: 45.5 µM (inactive) | GI50 [7]: > 100 µM (inactive) | GI50 [8]: > 100 µM (inactive) | GI50 [6]: > 100 µM (inactive) | GI50 [9]: > 100 µM (inactive)

CCN(CC)CCCC(C)Nc1c2ccc(Cl)cc2nc2cc(Cl)ccc12 (stereo not drawn)
GI50 [1]: 4.99 µM (inactive) | GI50 [2]: 4.85 µM (inactive) | GI50 [3]: 3.42 µM (inactive) | GI50 [4]: 4.41 µM (inactive) | GI50 [7]: 5.42 µM (inactive) | GI50 [5]: 9.82 µM (inactive) | GI50 [6]: 2.94 µM (inactive)

CCCCCCCCCCCCCCCC(=O)N[C@H]1CCc2cc(OC)c(OC)c(OC)c2-c2ccc(SC)c(=O)cc21
GI50 [1]: 0.769 µM (active) | GI50 [2]: 0.458 µM (active) | GI50 [3]: 0.186 µM (active) | GI50 [7]: 0.933 µM (active) | GI50 [8]: 0.486 µM (active) | GI50 [5]: 0.492 µM (active) | GI50 [6]: 0.365 µM (active)

COc1cccc2c1C(=O)c1c(O)c3c(c(O)c1C2=O)C[C@@](O)(C(=O)CN1CCOCC1)C[C@@H]3OC1CC(N)C(O)C(C)O1 (stereo partly drawn)
GI50 [1]: 2.45 µM (inactive) | GI50 [2]: 3.39 µM (inactive) | GI50 [3]: 9.77 µM (inactive) | GI50 [4]: 3.52 µM (inactive) | GI50 [7]: 0.000832 µM (active) | GI50 [6]: 7.71 µM (inactive)

CC1=NCCc2cc3[nH]c4ccccc4c3cc21
GI50 [1]: 10.9 µM (inactive) | GI50 [2]: 14.9 µM (inactive) | GI50 [3]: 11.2 µM (inactive) | GI50 [4]: 11.6 µM (inactive) | GI50 [7]: 18.7 µM (inactive) | GI50 [5]: 28.2 µM (inactive) | GI50 [6]: 19.2 µM (inactive)

Cc1ccc(C(=O)N2c3ccccc3N(C)n3cccc3C2CC(=O)O)cc1 (stereo not drawn)
GI50 [1]: > 100 µM (inactive) | GI50 [2]: > 100 µM (inactive) | GI50 [3]: > 100 µM (inactive) | GI50 [4]: > 100 µM (inactive) | GI50 [8]: > 100 µM (inactive) | GI50 [5]: > 100 µM (inactive) | GI50 [6]: > 100 µM (inactive)

C=C1C(=O)[C@@]23CC[C@H]4[C@@](C)(CCC[C@@]4(C)C(=O)OC)[C@@H]2CC[C@]1(O)C3
GI50 [1]: 1.75 µM (inactive) | GI50 [2]: 1.56 µM (inactive) | GI50 [7]: 2.07 µM (inactive) | GI50 [6]: 0.32 µM (active)

CN1COCN/C1=N/C#N
GI50 [1]: > 100 µM (inactive) | GI50 [2]: > 100 µM (inactive) | GI50 [3]: > 100 µM (inactive) | GI50 [4]: > 100 µM (inactive) | GI50 [7]: > 100 µM (inactive) | GI50 [8]: > 100 µM (inactive) | GI50 [5]: > 100 µM (inactive) | GI50 [6]: > 100 µM (inactive) | GI50 [9]: > 100 µM (inactive)

C/C=C1\C[C@@H]2C(OC)Nc3cc(O)c(OC)cc3C(=O)N2C1 (stereo partly drawn)
GI50 [2]: 0.00612 µM (active) | GI50 [3]: 0.00887 µM (active) | GI50 [4]: 0.00118 µM (active) | GI50 [7]: 0.0213 µM (active) | GI50 [8]: 0.00301 µM (active) | GI50 [6]: 0.00319 µM (active) | GI50 [9]: 0.00859 µM (active)

C/N=c1/ss/c(=N\C(SC)=[N+](C)C)n1C.[O-][Cl+3]([O-])([O-])[O-]
GI50 [1]: > 100 µM (inactive) | GI50 [8]: > 100 µM (inactive) | GI50 [5]: > 100 µM (inactive) | GI50 [9]: 8.13 µM (inactive)

COc1ccc(N2C(=O)/C(=C(\C)c3cc4ccccc4oc3=O)N=C2c2cc([N+](=O)[O-])ccc2Cl)cc1
GI50 [2]: 42.1 µM (inactive) | GI50 [3]: 29.7 µM (inactive) | GI50 [4]: 24.2 µM (inactive) | GI50 [7]: 85.1 µM (inactive) | GI50 [8]: 29.9 µM (inactive) | GI50 [5]: 24.4 µM (inactive) | GI50 [6]: 54.7 µM (inactive) | GI50 [9]: 36.6 µM (inactive)

Cc1cccc(C)c1N1C(=O)C(=O)C(c2nc3ccccc3s2)/C(=N/NC(=O)c2ccccc2O)C1=O (stereo not drawn)
GI50 [1]: 12.4 µM (inactive) | GI50 [2]: 13.1 µM (inactive) | GI50 [3]: 32.6 µM (inactive) | GI50 [4]: 11.6 µM (inactive) | GI50 [7]: 21.7 µM (inactive) | GI50 [8]: 10.2 µM (inactive) | GI50 [5]: 5.45 µM (inactive) | GI50 [6]: 22.8 µM (inactive) | GI50 [9]: 24.5 µM (inactive)

O=C1C[S+]([O-])c2ccccc2N1 (stereo not drawn)
GI50 [1]: > 100 µM (inactive) | GI50 [2]: > 100 µM (inactive) | GI50 [3]: > 100 µM (inactive) | GI50 [7]: > 100 µM (inactive) | GI50 [8]: > 100 µM (inactive) | GI50 [5]: > 100 µM (inactive) | GI50 [6]: > 100 µM (inactive) | GI50 [9]: > 100 µM (inactive)

O=C1C=CC(=O)C12CCc1ccccc12
GI50 [1]: > 100 µM (inactive) | GI50 [2]: > 100 µM (inactive) | GI50 [3]: > 100 µM (inactive) | GI50 [4]: > 100 µM (inactive) | GI50 [7]: > 33.2 µM (inactive) | GI50 [8]: > 100 µM (inactive) | GI50 [5]: > 100 µM (inactive) | GI50 [6]: > 63.8 µM (inactive) | GI50 [9]: > 100 µM (inactive)

COC(=O)/C(=N\Nc1nnc(C)n1N)C(C#N)c1ccccc1 (stereo not drawn)
GI50 [1]: > 100 µM (inactive) | GI50 [2]: 18.5 µM (inactive) | GI50 [3]: > 100 µM (inactive) | GI50 [4]: 21.5 µM (inactive) | GI50 [7]: 7.05 µM (inactive) | GI50 [8]: 64.9 µM (inactive) | GI50 [5]: > 100 µM (inactive) | GI50 [6]: 31.1 µM (inactive) | GI50 [9]: 83.6 µM (inactive)

Cc1c(C)c2ccc(OC(C)C(=O)O)cc2oc1=O (stereo not drawn)
GI50 [1]: 35 µM (inactive) | GI50 [2]: > 100 µM (inactive) | GI50 [3]: > 100 µM (inactive) | GI50 [4]: > 100 µM (inactive) | GI50 [7]: > 100 µM (inactive) | GI50 [8]: > 100 µM (inactive) | GI50 [5]: > 100 µM (inactive) | GI50 [6]: > 100 µM (inactive) | GI50 [9]: > 100 µM (inactive)

C[C@]12CCC(=O)C(O)=C1CCC2=O
GI50 [2]: > 100 µM (inactive) | GI50 [3]: > 100 µM (inactive) | GI50 [7]: > 100 µM (inactive) | GI50 [8]: > 100 µM (inactive) | GI50 [5]: > 100 µM (inactive) | GI50 [6]: > 100 µM (inactive)

C/C=C/C(=O)[C@@H](O)C(C)C
GI50 [2]: > 100 µM (inactive) | GI50 [3]: > 100 µM (inactive) | GI50 [8]: > 100 µM (inactive) | GI50 [5]: > 100 µM (inactive)

O=C1C(c2ccccc2)=C(c2ccccc2)C(c2ccccc2)/C1=C1\C(=O)C(c2ccccc2)=C(c2ccccc2)C1c1ccccc1 (stereo not drawn)
GI50 [2]: > 100 µM (inactive) | GI50 [3]: > 100 µM (inactive) | GI50 [4]: > 100 µM (inactive) | GI50 [7]: > 100 µM (inactive) | GI50 [8]: > 100 µM (inactive) | GI50 [5]: > 100 µM (inactive) | GI50 [6]: > 100 µM (inactive)

O=C1C=C(c2c(O)ccc3ccccc23)c2ccccc2C1=O
GI50 [2]: 1.64 µM (inactive) | GI50 [3]: 15.4 µM (inactive) | GI50 [4]: 2.04 µM (inactive) | GI50 [7]: 8.81 µM (inactive) | GI50 [8]: 1.59 µM (inactive) | GI50 [5]: 2.26 µM (inactive) | GI50 [6]: 3.76 µM (inactive) | GI50 [9]: 6.56 µM (inactive)

O=C1C2=C(C3=NCCc4c[nH]c1c43)c1c(cc(Br)c(O)c1Br)CCN2
GI50 [1]: 13.9 µM (inactive) | GI50 [2]: 2.79 µM (inactive) | GI50 [3]: 5.07 µM (inactive) | GI50 [4]: 2.96 µM (inactive) | GI50 [7]: 20 µM (inactive) | GI50 [5]: 5.64 µM (inactive) | GI50 [6]: 8.2 µM (inactive)
